Drawing on PubChem BioAssay (NCI), this text covers GI50 and TGI for 12 compounds.

Experiment in all cases: NCI anticancer screen, dose series, 48 h
For assay [1], the system named is M14 melanoma.
Assay [2] deals with COLO 205 colon.
Assay [3] concerns OVCAR-3 ovarian.
Assay [4] concerns CCRF-CEM leukemia.
Assay [5] concerns SN12C renal.
The test system of assay [6] is EKVX NSCLC.
Assay [7] relates to ACHN renal.
Assay [8] relates to MALME-3M melanoma.
Assay [9] concerns OVCAR-8 ovarian.

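Grown in 96-well plates, cells were treated for 48 hours with each compound at five concentrations. Insufficient inhibition: endpoint recorded as highest concentration tested. At the GI50, growth is halved. TGI is the concentration that stops growth completely.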

Regarding `COCCN1CCN(Cc2ccc(-c3n[nH]c4c3C(=O)c3c(NC(=O)NN5CCOCC5)cccc3-4)cc2)CC1`, the GI50 in assay [1] was 0.0296 µM; in assay [2], 0.0151 µM; in assay [3], 0.0242 µM; in assay [4], 0.0211 µM; in [5] it was 0.0307 µM; in assay [6], 0.0348 µM. Moreover, the results for the GI50 in assay [7], in assay [8] and in [9] were 0.0512 µM, 0.0705 µM and 0.0309 µM, respectively. Moreover, the TGI is 0.38 µM in [1], 0.0474 µM in assay [2], over 10 µM in assay [5] and over 10 µM in assay [7].

Regarding `Cc1ccc(-c2cc(=O)c3cc(C)c(C)c(C(=O)O)c3o2)cc1N`, the TGI in assay [1], in [2], in [3], in assay [4], in assay [5] and in assay [6] was over 100 µM in each case. Moreover, the TGI in assay [7], in assay [8] and in [9] was over 100 µM throughout.

Turning to `O=C1Nc2ccccc2/C1=C\c1nc(C2CCN(S(=O)(=O)c3ccc(F)cc3)CC2)n2ccccc12`, the GI50 in assay [1] is over 100 µM; in [2] it was over 100 µM; in [3], 2.72 µM; in [4] it was over 100 µM; in assay [5] it was 3.05 µM; in [6], 4.87 µM. Moreover, the GI50 in [7] was 4.07 µM; in [9], 1.39 µM. In addition, the TGI in assay [1] was over 100 µM; in assay [2], over 100 µM; in assay [3] it was 11.1 µM; in assay [4], over 100 µM; in assay [5], over 100 µM; in assay [6], over 100 µM. Moreover, the TGI in [7] was over 100 µM; in assay [9], 6.77 µM.

On to `CNS(=O)(=O)NN(C)S(=O)(=O)c1ccc2ccccc2c1`, for which the TGI in assay [1], in assay [2], in [4], in assay [5], in [6] and in assay [7] was over 100 µM each time. Further, the TGI in assay [8] and in assay [9] was over 100 µM throughout.

`CN1CCN(Cc2ccc(NC(=O)c3cncc(C#Cc4cncc5nccnc45)c3)cc2C(F)(F)F)CC1`: the GI50 in assay [1] is 0.83 µM; in assay [2], 0.904 µM; in assay [3] it was 4.95 µM; in assay [4] it was 3.98 µM; in [5], 1.97 µM; in [6], over 50 µM. Moreover, the GI50 was 1.57 µM in assay [7], 0.231 µM in assay [8] and 3.71 µM in assay [9]. Also, the TGI in assay [1] is 4.33 µM; in [2], 7.11 µM; in assay [3], 15.1 µM; in assay [4], 35 µM; in assay [5], 13.9 µM; in assay [6], over 50 µM. In addition, the TGI in [7] was determined as 6.48 µM; in assay [8], 1.3 µM; in assay [9], 24.1 µM.

For the compound `CC1C[C@]2(C[C@@H](C)C(=O)O2)O[C@@H]2CC3(C)[C@@H]4CCC5C(C)(C)OC(=O)C[C@H]6OO[C@]4(CC[C@]3(C)C12)CC56O` (stereo not given in full), the TGI in assay [1], in assay [3], in assay [5], in assay [7], in [8] and in assay [9] was over 100 µM in each case.

Consider `Cc1ccc(C2=C(c3ccc(C)cc3)C3(c4ccc(C)cc4)C4C(=O)c5ccccc5C(=O)C4C2(c2ccc(C)cc2)S3=O)cc1` (stereo not given), for which the GI50 in [1], in assay [2], in assay [3], in assay [4], in assay [5] and in assay [6] was over 100 µM throughout. The GI50 in assay [7], in [8] and in [9] was over 100 µM each time. In addition, the TGI in assay [1], in [2], in assay [3], in assay [4], in assay [5] and in assay [6] was over 100 µM each time. The TGI in assay [7], in assay [8] and in [9] was over 100 µM throughout.

For `CC(=O)[CH-]C(=O)c1ccccc1.CC(=O)[CH-]C(=O)c1ccccc1.Cl.[O-]c1ccccn1.[O-]c1ccccn1.[Ti+4]`, the GI50 in [1], in assay [3], in [5], in assay [6], in assay [7] and in assay [8] was over 100 µM throughout. Further, in [9], the GI50 is over 100 µM. Besides, the TGI in [1], in [3], in assay [5], in [6], in assay [7] and in assay [8] was over 100 µM throughout. The compound also gave a TGI in assay [9] of over 100 µM.

In the case of `CCCCc1n(Cc2ccc3ccccc3c2)cc[n+]1Cc1ccc2ccccc2c1`, the GI50 is 1.52 µM in [4], 1.09 µM in assay [5], 1.97 µM in [7] and 1.18 µM in [8]. For the same compound, the TGI in assay [4] was 4.03 µM; in [5], 2.43 µM; in [7], 4.19 µM; in [8], 2.64 µM.

In the case of `CCOC(=O)C1=C(C)N(NC(N)=O)C(C)(O)C12CCOC2=O` (stereo not given), the TGI in assay [1], in assay [3], in assay [5], in [6], in assay [7] and in assay [8] was over 100 µM throughout. Further, the TGI in assay [9] is over 100 µM.

With `CCN(CC)C(=O)N1CCN(C=S)CC1`, the TGI in [1], in assay [2], in [3], in assay [4], in assay [5] and in assay [6] was over 100 µM in each case. For the same compound, the TGI in [7], in [8] and in assay [9] was over 100 µM throughout.

In the case of `CCOC(=N)CC(=O)Nc1cccc(Cl)c1`, the TGI in [1], in assay [2], in [3], in [4], in assay [5] and in assay [6] was over 100 µM each time. Moreover, the TGI in [7], in assay [8] and in [9] was over 100 µM throughout.
